Assay results from patent US12655072B2, “Formulation system for compositions for enhancing nitrogen stabilizers” (Verdesian Life Sciences U.S., LLC, priority 2020, dated 2026).

Columns and labels:
[1] = cited from earlier work
soil = experiment: Field study: soil collection for determination of N-NO3 and N-NH4; type: in vivo
Description: (§1) The activity of nitrate reductase enzyme at V2-V3 and flowering (first fully developed leaf, three plants per plot) was measured. In addition, soil collection was performed for the determination of N-NO3 and N-NH4 up to 30 days after the application of the cover. This methodology was adapted by Cataldo et al (1975) and Kemper; Zewers (1986). Soil Fertility Center ([…]). Growth analysis was performed on dry plant mass every 30 days. Harvesting was performed at physiological maturity. The plants of the three central lines of each plot was harvested excluding 1.0 meter at each end. The rows were measured and the number of plants and ears per row harvested were counted. After harvesting, manual threshing was performed and the 100 grain mass was determined as well as the yield of the crop. Harvest results were estimated for kg/ha and bu/acre.

[2] = system: corn hybrid AG 8088 VT PRO; experiment: Field study, no-till rainfed corn: harvest, dry plant mass, N content; type: in vivo; details: 135 kg/ha of N
Description: A field study was carried out of an area under no-till system that was cultivated with rainfed corn (i.e., without irrigation). The corn cultured was a corn hybrid AG 8088 VT PRO (High yield) with a Standak Top of 100 mL/ha and a plant density of 77,000 plants/ha. The following three formulations were applied at three different rates ([…]) to a field: • Trident Formulation (10-10-10; % polymer-% DCD-% NBPT) • Trident V Formulation (5-5-15; % polymer-% DCD-% NBPT) • Trident N Formulation (5-20-5; % polymer-% DCD-% NBPT)
As a control, plants were only treated with the nitrogen fertilizer (e.g., UAN with 30%-45% N) or were left untreated.
The nitrogen fertilizer was applied with 135 kg/ha of N, which corresponds to a dose of 75N/bu for 10.8 ton/ha of maize. In addition a typical herbicide, fungicide and insecticide program was adopted to remove all study variability due to weeds, diseases or insects throughout the study period;
The activity of nitrate reductase enzyme at V2-V3 and flowering (first fully developed leaf, three plants per plot) was measured. In addition, soil collection was performed for the determination of N—NO3 and N—NH4 up to 30 days after the application of the cover. This methodology was adapted by Cataldo et al (1975) and Kemper; Zewers (1986). Soil Fertility Center (CEFERT). Growth analysis was performed on dry plant mass every 30 days. Harvesting was performed at physiological maturity. The plants of the three central lines of each plot was harvested excluding 1.0 meter at each end. The rows were measured and the number of plants and ears per row harvested were counted. After harvesting, manual threshing was performed and the 100 grain mass was determined as well as the yield of the crop. Harvest results were estimated for kg/ha and bu/acre.

nitrate reductase enzyme = experiment: Field study: activity of nitrate reductase enzyme in the leaves; type: in vivo, corn
Description: as §1

[3] = first collection within 30 days
[4] = second collection within 30 days

1 ANR (activity of the enzyme nitrate reductase in the leaves) (nitrate reductase enzyme; first measurement (measured at V2-V3 and flowering)) | 2 ANR (activity of the enzyme nitrate reductase in the leaves) (nitrate reductase enzyme; second measurement (measured at V2-V3 and flowering)) | SMILES | solubility in water [1] | 1 NH4 (NH4 values in the soil) (soil; [3]) | 1 NO3 (NO3 values in the soil) (soil; [3]) | 2 NH4 (NH4 values in the soil) (soil; [4]) | 2 NO3 (NO3 values in the soil) (soil; [4]) | MSCaule (production of dry mass of corn plants: corn plant stems) [2] | MSEspiga [2] | MSFolhas (production of dry mass of corn plants: leaves) [2] | MSTotal (production of total dry mass of corn plants) [2] | N Folha (leaf nitrogen content) [2] | N Grão [2] | grains of corn on the corn ear (FIG. 3) ([2]; compared to untreated)
– | – | N#CN=C(N)N [dicyandiamide] | about 41 g/l | – | – | – | – | – | – | – | – | – | – | –
137.51 | 74.82 | NC(N)=O [Urea N, urea] | – | 31.97 mg/kg | 34.16 mg/kg | 25.93 mg/kg | 27.07 mg/kg | 148.04 g plant−1 | 191.75 g plant−1 | 80.28 g plant−1 | 420.06 g plant−1 | 2.24 dag kg−1 | 115.04 kg ha−1 | exhibited more grains of corn compared to ears that were untreated
